pIC50: −log10 of the molar value.
How the values were obtained:
[1] = test system: Toledo cells; assay: Cell proliferation assay (MTS), Toledo cells; assay type: cell-based; conditions: Homo sapiens, 72 h
Method in brief: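 Toledo cells (RPMI-1640, 10% FBS) seeded at 30000 cells/well, rested 4 h, then exposed 72 h at 37 °C, 5% CO2 to compound at nine final concentrations, 1.5–10000 nM. Viability by MTS (2 h), absorbance at 490 nm. IC50 from the concentration-response.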

[2] = test system: RS4;11-BCL-2 G101V cells; assay: Cell proliferation assay (MTS), RS4;11-BCL-2 G101V engineered cells; assay type: cell-based; conditions: Homo sapiens, 120 h, read-out: RS4, 11 BCL2-G101V IC50
Method in brief: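 Cells were plated, allowed to settle 4 h (G101V, F104L) or 24 h (D103E, D103Y), and treated with serially diluted compound (10000 down to 1.5 nM). After 120 h or 72 h respectively at 37 °C, MTS was added for 2 h and absorbance at 490 nm gave IC50 values.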

Row | pIC50 [2] | SMILES | pIC50 [1]
1 | 9.00 | COc1ccc(CN2CCN(C3CC4(CCN(c5ccc(C(=O)NS(=O)(=O)c6cnc(NC[C@H]7CC[C@](C)(O)CC7)c([N+](=O)[O-])c6)c(Oc6cnc7[nH]cc(F)c7c6)c5)CC4)C3)[C@H](c3ccccc3C(C)C)C2)cc1F [Example 201, 2-((3-fluoro-1H-pyrrolo[2,3-b]pyridin-5-yl)oxy)-4-(2-((R)-4-(3-fluoro-4-methoxybenzyl)-2-(2-isopropylphenyl)piperazin-1-yl)-7-azaspiro [3.5]nonan-7-yl)-N-((6-((((1r,4r)-4-hydroxy-4-methylcyclohexyl)methyl)amino)-5-nitropyridin-3-yl)sulfonyl)benzamide] | 9.00
2 | 9.00 | CCOc1nc2[nH]cc(F)c2cc1Oc1cc(N2CCC3(CC2)CC(N2CCN(Cc4ccc(Cl)cc4)C[C@H]2c2ccccc2C(C)C)C3)ccc1C(=O)NS(=O)(=O)c1cnc(NC[C@H]2CC[C@](C)(O)CC2)c([N+](=O)[O-])c1 [Example 231, 4-(2-((R)-4-(4-chlorobenzyl)-2-(2-isopropylphenyl)piperazin-1-yl)-7-azaspiro[3.5]nonan-7-yl)-2-((6-ethoxy-3-fluoro-1H-pyrrolo[2,3-b]pyridin-5-yl)oxy)-N-((6-((((1r,4r)-4-hydroxy-4-methylcyclohexyl)methyl)amino)-5-nitropyridin-3-yl)sulfonyl)benzamide] | 9.00
3 | 9.00 | CCOc1nc2[nH]cc(F)c2cc1Oc1cc(N2CCC3(CC2)CC(N2CCN(Cc4ccc(F)cc4)C[C@H]2c2ccccc2C(C)C)C3)ccc1C(=O)NS(=O)(=O)c1cnc(NC[C@H]2CC[C@](C)(O)CC2)c([N+](=O)[O-])c1 [Example 234, 2-((6-ethoxy-3-fluoro-1H-pyrrolo[2,3-b]pyridin-5-yl)oxy)-4-(2-((R)-4-(4-fluorobenzyl)-2-(2-isopropylphenyl)piperazin-1-yl)-7-azaspiro[3.5]nonan-7-yl)-N-((6-((((1r,4r)-4-hydroxy-4-methylcyclohexyl)methyl)amino)-5-nitropyridin-3-yl)sulfonyl)benzamide] | 9.00
4 | 9.00 | CCOc1nc2[nH]cc(F)c2cc1Oc1cc(N2CCC3(CC2)CC(N2CCN(Cc4ccc(C#N)cc4)C[C@H]2c2ccccc2C(C)C)C3)ccc1C(=O)NS(=O)(=O)c1cnc(NC[C@H]2CC[C@](C)(O)CC2)c([N+](=O)[O-])c1 [Example 235, 4-(2-((R)-4-(4-cyanobenzyl)-2-(2-isopropylphenyl)piperazin-1-yl)-7-azaspiro[3.5]nonan-7-yl)-2-((6-ethoxy-3-fluoro-1H-pyrrolo [2,3-b]pyridin-5-yl)oxy)-N-((6-((((1r,4r)-4-hydroxy-4-methylcyclohexyl)methyl)amino)-5-nitropyridin-3-yl)sulfonyl)benzamide] | 9.00
5 | 9.00 | CCOc1nc2[nH]cc(F)c2cc1Oc1cc(N2CCC3(CC2)CC(N2CCN(Cc4ccnc(OC)c4)C[C@H]2c2ccccc2C(C)C)C3)ccc1C(=O)NS(=O)(=O)c1cnc(NC[C@H]2CC[C@](C)(O)CC2)c([N+](=O)[O-])c1 [Example 241, 2-((6-ethoxy-3-fluoro-1H-pyrrolo[2,3-b]pyridin-5-yl)oxy)-N-((6-((((1r,4r)-4-hydroxy-4-methylcyclohexyl)methyl)amino)-5-nitropyridin-3-yl)sulfonyl)-4-(2-((R)-2-(2-isopropylphenyl)-4-((2-methoxypyridin-4-yl)methyl)piperazin-1-yl)-7-azaspiro[3.5]nonan-7-yl)benzamide] | 9.00
6 | 9.00 | COc1nc2[nH]cc(F)c2cc1Oc1cc(N2CCC3(CC2)CC(N2CCN(Cc4ccc5c(c4)CCO5)C[C@H]2c2ccccc2C(C)C)C3)ccc1C(=O)NS(=O)(=O)c1cnc(NC[C@H]2CC[C@](C)(O)CC2)c([N+](=O)[O-])c1 [Example 323, 4-(2-((R)-4-((2,3-dihydrobenzofuran-5-yl)methyl)-2-(2-isopropylphenyl)piperazin-1-yl)-7-azaspiro[3.5]nonan-7-yl)-2-((3-fluoro-6-methoxy-1H-pyrrolo[2,3-b]pyridin-5-yl)oxy)-N-((6-((((1r,4r)-4-hydroxy-4-methylcyclohexyl)methyl)amino)-5-nitropyridin-3-yl)sulfonyl)benzamide] | 9.00
7 | 9.00 | CC(C)c1ccccc1[C@@H]1CN(C[C@@H]2COCCO2)CCN1C1CC2(CCN(c3ccc(C(=O)NS(=O)(=O)c4cnc(NC[C@H]5CC[C@](C)(O)CC5)c([N+](=O)[O-])c4)c(Oc4cnc5[nH]cc(F)c5c4)c3)CC2)C1 [Example 335, 4-(2-((R)-4-(((R)-1,4-dioxan-2-yl)methyl)-2-(2-isopropylphenyl)piperazin-1-yl)-7-azaspiro[3.5]nonan-7-yl)-2-((3-fluoro-1H-pyrrolo[2,3-b]pyridin-5-yl)oxy)-N-((6-((((1r,4r)-4-hydroxy-4-methylcyclohexyl)methyl)amino)-5-nitropyridin-3-yl)sulfonyl)benzamide] | 9.00
8 | 9.00 | COc1nc2[nH]cc(F)c2cc1Oc1cc(N2CCC3(CC2)CC(N2CCN(Cc4cc5c(cn4)OCCO5)C[C@H]2c2ccccc2C(C)C)C3)ccc1C(=O)NS(=O)(=O)c1cnc(NC[C@H]2CC[C@](C)(O)CC2)c([N+](=O)[O-])c1 [Example 338, 4-(2-((R)-4-((2,3-dihydro-[1,4]dioxino[2,3-c]pyridin-7-yl)methyl)-2-(2-isopropylphenyl)piperazin-1-yl)-7-azaspiro[3.5]nonan-7-yl)-2-((3-fluoro-6-methoxy-1H-pyrrolo[2,3-b]pyridin-5-yl)oxy)-N-((6-((((1r,4r)-4-hydroxy-4-methylcyclohexyl)methyl)amino)-5-nitropyridin-3-yl)sulfonyl)benzamide] | 9.00
9 | 9.00 | CC(C)c1ccccc1[C@@H]1CN(Cc2cc3c(cn2)OCCO3)CCN1C1CC2(CCN(c3ccc(C(=O)NS(=O)(=O)c4cnc(NC[C@H]5CC[C@](C)(O)CC5)c([N+](=O)[O-])c4)c(Oc4cnc5[nH]cc(F)c5c4)c3)CC2)C1 [Example 341, 4-(2-((R)-4-((2,3-dihydro-[1,4]dioxino[2,3-c]pyridin-7-yl)methyl)-2-(2-isopropylphenyl)piperazin-1-yl)-7-azaspiro[3.5]nonan-7-yl)-2-((3-fluoro-1H-pyrrolo[2,3-b]pyridin-5-yl)oxy)-N-((6-((((1r,4r)-4-hydroxy-4-methylcyclohexyl)methyl)amino)-5-nitropyridin-3-yl)sulfonyl)benzamide] | 9.00
